Reference: patent publication US20250282749A1 (Tango Therapeutics, Inc., priority 2022, published 2025)

Assays:
Assay type in all cases: cell-based
[1] = system: HAP1 MTAP-deleted cell line; assay: viability assay for the MTAP-deleted cell line; conditions: Homo sapiens
[2] = system: PRMT5 (SDMA) in HAP1 MTAP-intact cell line; assay: SDMA in-cell western assay, HAP1 MTAP-intact cell line; conditions: Homo sapiens, HAP1 MTAP-intact cell line (endogenous MTAP), read-out: Hap 1 MTAP intact IC50
Source text: (§1) HAP1 MTAP-intact is a cell line in which endogenous levels of MTAP are expressed, and HAP1 MTAP-deleted is an MTAP-null cell line.

[3] = system: PRMT5 (SDMA) in HAP1 MTAP-deleted cell line; assay: SDMA in-cell western assay, HAP1 MTAP-deleted cell line; conditions: for IC50 / IC90: Homo sapiens, SDMA in-cell western, HAP1 MTAP-deleted (MTAP-null) cell line; for Hap1 MTAP intact/deleted ratio: ratio of SDMA in-cell western IC50 in HAP1 MTAP-intact to IC50 in HAP1 MTAP-deleted cell line
Source text: as §1

## Cc1cc(NC(=O)C(=O)N2C[C@H](C)N(CC(C)C)C[C@H]2c2ccc(F)cc2)cnc1N [Compound 80, N-(6-amino-5-methyl-3-pyridyl)-2-[(2R,5S)-2-(4-fluorophenyl)-4-isobutyl-5-methyl-piperazin-1-yl]-2-oxo-acetamide]
[1]
  IC50: 0.1 to 1 µM
[2]
  IC50: > 0.05 µM
[3]
  IC50: 0.005 to 0.05 µM
  IC90: > 0.125 µM
  Hap1 MTAP intact/deleted ratio: C (an IC50 ratio of less than 15 fold)

## CCc1cc(NC(=O)C(=O)N2C[C@@H](C)N(C(=O)C3(C(F)(F)F)CC3)C[C@@H]2c2ccccc2)cnc1N [Compound 81, N-(6-amino-5-ethylpyridin-3-yl)-2-((2S,5R)-5-methyl-2-phenyl-4-(1-(trifluoromethyl)cyclopropanecarbonyl)piperazin-1-yl)-2-oxoacetamide]
[1]
  IC50: < 0.1 µM
[2]
  IC50: > 0.05 µM
[3]
  IC50: 0.005 to 0.05 µM
  IC90: 0.075 to 0.125 µM
  Hap1 MTAP intact/deleted ratio: B (an IC50 ratio greater than or equal to 15 fold but lower than 30 fold)

## COc1ncc(NC(=O)C(=O)N2C[C@@H](C)N(C(=O)C(C)C)C[C@@H]2c2ccc(F)cc2)cc1C(N)=O [Compound 83, 5-[[2-[(2S,5R)-2-(4-fluorophenyl)-5-methyl-4-(2-methylpropanoyl)piperazin-1-yl]-2-oxo-acetyl]amino]-2-methoxy-pyridine-3-carboxamide]
[1]
  IC50: 0.1 to 1 µM
[2]
  IC50: > 0.05 µM
[3]
  IC50: 0.005 to 0.05 µM
  IC90: 0.075 to 0.125 µM
  Hap1 MTAP intact/deleted ratio: A (an IC50 ratio greater than or equal to 30 fold)

## CCc1cc(NC(=O)C(=O)N2C[C@@H](C)N(C(=O)C3(C(F)(F)F)CC3)C[C@@H]2c2ccc(C)cc2)cnc1N [Compound 85, N-(6-amino-5-ethylpyridin-3-yl)-2-((2S,5R)-5-methyl-2-(p-tolyl)-4-(1-(trifluoromethyl)cyclopropanecarbonyl)piperazin-1-yl)-2-oxoacetamide]
[1]
  IC50: < 0.1 µM
[2]
  IC50: > 0.05 µM
[3]
  IC50: 0.005 to 0.05 µM
  IC90: 0.075 to 0.125 µM
  Hap1 MTAP intact/deleted ratio: B (an IC50 ratio greater than or equal to 15 fold but lower than 30 fold)

## CC(C)C(=O)N1C[C@H](c2ccc(F)cc2)N(C(=O)C(=O)Nc2cnc(N)c(C3CC3)c2)C[C@H]1C [Compound 86, N-(6-amino-5-cyclopropylpyridin-3-yl)-2-((2S,5R)-2-(4-fluorophenyl)-4-isobutyryl-5-methylpiperazin-1-yl)-2-oxoacetamide]
[1]
  IC50: < 0.1 µM
[2]
  IC50: > 0.05 µM
[3]
  IC50: 0.005 to 0.05 µM
  IC90: < 0.075 µM
  Hap1 MTAP intact/deleted ratio: C (an IC50 ratio of less than 15 fold)

## CCc1cc(NC(=O)C(=O)N2C[C@@H](C)N(C(=O)C(C)C)C[C@@H]2c2ccc(F)c(Cl)c2)cnc1N [Compound 87, N-(6-amino-5-ethylpyridin-3-yl)-2-((2S,5R)-2-(3-chloro-4-fluorophenyl)-4-isobutyryl-5-methylpiperazin-1-yl)-2-oxoacetamide]
[1]
  IC50: < 0.1 µM
[2]
  IC50: > 0.05 µM
[3]
  IC50: < 0.005 µM
  IC90: > 0.125 µM
  Hap1 MTAP intact/deleted ratio: A (an IC50 ratio greater than or equal to 30 fold)

## COc1ncc(NC(=O)C(=O)N2C[C@H](C)N(C(=O)C(C)C)C[C@H]2c2ccc(F)cc2)cc1C(N)=O [Compound 88, 5-[[2-[(2R,5S)-2-(4-fluorophenyl)-5-methyl-4-(2-methylpropanoyl)piperazin-1-yl]-2-oxo-acetyl]amino]-2-methoxy-pyridine-3-carboxamide]
[1]
  IC50: > 1 µM
[2]
  IC50: > 0.05 µM
[3]
  IC50: > 0.05 µM
  IC90: > 0.125 µM
  Hap1 MTAP intact/deleted ratio: C (an IC50 ratio of less than 15 fold)

## CCc1cc(NC(=O)C(=O)N2C[C@@H](C)N(C(=O)C(C)C)C[C@@H]2c2ccc(N3CCN(C)CC3)cc2)cnc1N [Compound 89, N-(6-amino-5-ethylpyridin-3-yl)-2-((2S,5R)-4-isobutyryl-5-methyl-2-(4-(4-methylpiperazin-1-yl)phenyl)piperazin-1-yl)-2-oxoacetamide]
[1]
  IC50: < 0.1 µM
[2]
  IC50: > 0.05 µM
[3]
  IC50: < 0.005 µM
  IC90: < 0.075 µM
  Hap1 MTAP intact/deleted ratio: A (an IC50 ratio greater than or equal to 30 fold)

## Cc1cc(NC(=O)C(=O)N2C[C@@H](C)N(C(=O)C(C)C)C[C@@H]2c2cccc(Cl)c2)cnc1N [Compound 90, N-(6-amino-5-methylpyridin-3-yl)-2-((2S,5R)-2-(3-chlorophenyl)-4-isobutyryl-5-methylpiperazin-1-yl)-2-oxoacetamide]
[1]
  IC50: < 0.1 µM
[2]
  IC50: > 0.05 µM
[3]
  IC50: 0.005 to 0.05 µM
  IC90: > 0.125 µM
  Hap1 MTAP intact/deleted ratio: B (an IC50 ratio greater than or equal to 15 fold but lower than 30 fold)

## C[C@@H]1CN(C(=O)C(=O)Nc2cncc3cn[nH]c23)[C@@H](c2ccccc2)CN1C(=O)C1(C)CC1 [Compound 91, 2-((2S,5R)-5-methyl-4-(1-methylcyclopropanecarbonyl)-2-phenylpiperazin-1-yl)-2-oxo-N-(1H-pyrazolo[4,3-c]pyridin-7-yl)acetamide]
[1]
  IC50: < 0.1 µM
[2]
  IC50: > 0.05 µM
[3]
  IC50: 0.005 to 0.05 µM
  IC90: > 0.125 µM
  Hap1 MTAP intact/deleted ratio: B (an IC50 ratio greater than or equal to 15 fold but lower than 30 fold)

## CC(C)C(=O)N1C[C@H](c2ccc3scnc3c2)N(C(=O)C(=O)Nc2cnc(N)c(C3CC3)c2)C[C@H]1C [Compound 93, N-(6-amino-5-cyclopropyl-3-pyridyl)-2-[(2S,5R)-2-(1,3-benzothiazol-5-yl)-5-methyl-4-(2-methylpropanoyl)piperazin-1-yl]-2-oxo-acetamide]
[1]
  IC50: < 0.1 µM
[2]
  IC50: 0.005 to 0.05 µM
[3]
  IC50: 0.005 to 0.05 µM
  IC90: < 0.075 µM
  Hap1 MTAP intact/deleted ratio: C (an IC50 ratio of less than 15 fold)

## C[C@@H]1CN(C(=O)C(=O)Nc2cnc(N)c(C3CC3)c2)[C@@H](c2ccccc2)CN1C(=O)C1(C)CC1 [Compound 94, N-(6-amino-5-cyclopropylpyridin-3-yl)-2-((2S,5R)-5-methyl-4-(1-methylcyclopropanecarbonyl)-2-phenylpiperazin-1-yl)-2-oxoacetamide]
[1]
  IC50: < 0.1 µM
[2]
  IC50: > 0.05 µM
[3]
  IC50: < 0.005 µM
  IC90: 0.075 to 0.125 µM
  Hap1 MTAP intact/deleted ratio: B (an IC50 ratio greater than or equal to 15 fold but lower than 30 fold)

## CCc1cc(NC(=O)C(=O)N2C[C@@H](C)OC[C@@H]2c2ccc3sc(C4CCN(C)CC4)nc3c2)cnc1N [Compound 96]
[1]
  IC50: < 0.1 µM
[2]
  IC50: > 0.05 µM
[3]
  IC50: 0.005 to 0.05 µM
  IC90: 0.075 to 0.125 µM
  Hap1 MTAP intact/deleted ratio: B (an IC50 ratio greater than or equal to 15 fold but lower than 30 fold)

## C[C@@H]1CN(C(=O)C(=O)Nc2cnc(N)c(C3CC3)c2)[C@@H](c2ccccc2)CN1C(=O)C(C)(C)C [Compound 97, N-(6-amino-5-cyclopropylpyridin-3-yl)-2-((2S,5R)-5-methyl-2-phenyl-4-pivaloylpiperazin-1-yl)-2-oxoacetamide]
[1]
  IC50: < 0.1 µM
[2]
  IC50: 0.005 to 0.05 µM
[3]
  IC50: < 0.005 µM
  IC90: < 0.075 µM
  Hap1 MTAP intact/deleted ratio: C (an IC50 ratio of less than 15 fold)

## CC(C)C(=O)N1C[C@H](c2ccccc2)N(C(=O)C(=O)Nc2cnc(N)c(C3CC3)c2)C[C@H]1C [Compound 98, N-(6-amino-5-cyclopropylpyridin-3-yl)-2-((2S,5R)-4-isobutyryl-5-methyl-2-phenylpiperazin-1-yl)-2-oxoacetamide]
[1]
  IC50: < 0.1 µM
[2]
  IC50: > 0.05 µM
[3]
  IC50: 0.005 to 0.05 µM
  IC90: 0.075 to 0.125 µM
  Hap1 MTAP intact/deleted ratio: C (an IC50 ratio of less than 15 fold)

## Cc1cc(NC(=O)C(=O)N2C[C@@H](C)N(C(=O)C(C)(C)C)C[C@@H]2c2ccccc2)cnc1N [Compound 99, N-(6-amino-5-methylpyridin-3-yl)-2-((2S,5R)-5-methyl-2-phenyl-4-pivaloylpiperazin-1-yl)-2-oxoacetamide]
[1]
  IC50: < 0.1 µM
[2]
  IC50: 0.005 to 0.05 µM
[3]
  IC50: < 0.005 µM
  IC90: < 0.075 µM
  Hap1 MTAP intact/deleted ratio: C (an IC50 ratio of less than 15 fold)

## C[C@@H]1CN(C(=O)C(=O)Nc2cncc3cn[nH]c23)[C@@H](c2ccccc2)CN1C(=O)C1(C(F)(F)F)CC1 [Compound 100, 2-((2S,5R)-5-methyl-2-phenyl-4-(1-(trifluoromethyl)cyclopropanecarbonyl)piperazin-1-yl)-2-oxo-N-(1H-pyrazolo[4,3-c]pyridin-7-yl)acetamide]
[1]
  IC50: < 0.1 µM
[2]
  IC50: > 0.05 µM
[3]
  IC50: 0.005 to 0.05 µM
  IC90: > 0.125 µM
  Hap1 MTAP intact/deleted ratio: C (an IC50 ratio of less than 15 fold)

## Cc1cc(NC(=O)C(=O)N2C[C@@H](C)N(C(=O)OC(C)(C)C)C[C@@H]2c2ccc(F)cc2)cnc1N [Compound 101]
[1]
  IC50: < 0.1 µM
[2]
  IC50: > 0.05 µM
[3]
  IC50: < 0.005 µM
  IC90: < 0.075 µM
  Hap1 MTAP intact/deleted ratio: B (an IC50 ratio greater than or equal to 15 fold but lower than 30 fold)

## CCc1cc(NC(=O)C(=O)N2C[C@@H](C)N(C(=O)C3(C)CC3)C[C@@H]2c2ccc(N3CCN(C)CC3)cc2)cnc1N [Compound 105, N-(6-amino-5-ethylpyridin-3-yl)-2-((2S,5R)-5-methyl-4-(1-methylcyclopropanecarbonyl)-2-(4-(4-methylpiperazin-1-yl)phenyl)piperazin-1-yl)-2-oxoacetamide]
[1]
  IC50: < 0.1 µM
[2]
  IC50: > 0.05 µM
[3]
  IC50: < 0.005 µM
  IC90: < 0.075 µM
  Hap1 MTAP intact/deleted ratio: B (an IC50 ratio greater than or equal to 15 fold but lower than 30 fold)

## C[C@@H]1CN(C(=O)C(=O)Nc2cnc(N)c3cn[nH]c23)[C@@H](c2ccccc2)CO1 [Compound 107]
[1]
  IC50: 0.1 to 1 µM
[2]
  IC50: > 0.05 µM
[3]
  IC50: < 0.005 µM
  IC90: < 0.075 µM
  Hap1 MTAP intact/deleted ratio: A (an IC50 ratio greater than or equal to 30 fold)

## Cc1cc(NC(=O)C(=O)N2C[C@@H](C)N(C(=O)C(C)(C)CN3CCn4ccnc4C3)C[C@@H]2c2ccccc2)cnc1N [Compound 109]
[1]
  IC50: 0.1 to 1 µM
[2]
  IC50: > 0.05 µM
[3]
  IC50: 0.005 to 0.05 µM
  IC90: > 0.125 µM
  Hap1 MTAP intact/deleted ratio: C (an IC50 ratio of less than 15 fold)
